Consider 22 substances from patent US12492224B2, “Bicyclic peptide ligands specific for PD-L1” (BicycleTx Limited, priority 2018, dated 2025).

Where no end group is shown, it is not given here. [ ]: non-standard residue; d: D form. hArg = N=C(N)NCCCC[C@H](N)C(=O)O; Aad = N[C@@H](CCCC(=O)O)C(=O)O; Nva = CCC[C@H](N)C(=O)O

T2 sequence (Q9NZQ7 19-290): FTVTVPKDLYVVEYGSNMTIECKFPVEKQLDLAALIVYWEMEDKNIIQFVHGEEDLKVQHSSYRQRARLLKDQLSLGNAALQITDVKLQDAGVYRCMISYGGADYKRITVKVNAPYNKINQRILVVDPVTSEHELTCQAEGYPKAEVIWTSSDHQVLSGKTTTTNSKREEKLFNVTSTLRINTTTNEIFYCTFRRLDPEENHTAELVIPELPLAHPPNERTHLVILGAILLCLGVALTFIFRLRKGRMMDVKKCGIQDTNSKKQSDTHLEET

The first assay deals with T1, PD-1/PD-L1 interaction (Homo sapiens, UniProt Q9NZQ7).
T1 construct: host or cells: CHO-K1 (human PD-L1) and Jurkat (human PD-1, NFAT-luciferase)
T1 sequence (Q9NZQ7 19-290): as above
The assay can be described thus: PD-1/PD-L1 Blockade Bioassay (Jurkat PD-1 NFAT-luciferase / CHO-K1 PD-L1). Type of assay: cell-based. Conditions: FIG. 1 and Table 6. As for the experimental part: Effector Jurkat cells engineered to overexpress human PD-1 and express a luciferase gene under the NFAT response element were purchased from Promega. Target CHO-K1 cells which overexpress human PD-L1 and an engineered cell surface protein designed to activate the Jurkat's T cell receptor in an antigen-independent manner were also purchased from Promega. CHO-K1 cells were plated the day before the assay in Ham's F-12 Medium+10% FBS and were allowed to adhere to the plate. On the day of the assay, media was removed and Jurkat cells were plated with a dose response of test articles in RPMI1640 media with 1% FBS (80 μL total volume per well). […] After 6 hours of incubation at 37° C., 5% CO2, 80 μL of Bio-Glo reagent (Promega) was added to each well and allowed to equilibrate for 10 minutes at room temperature. Luminescence was read on the Clariostar plate reader (BMG LabTech). Fold induction was calculated by dividing the luminescence signal by the average of the background wells (wells with both cell lines and no test article). Data was graphed in Prism and fit to a 4-parameter logistic curve.
For [Ac]SDKCSAGWLTMCKQLNLCPSH [BCY10467], the “ability to block PD-1/PD-L1 interaction between PD-1 expressing T cells and CHO-K1 stable expressing PD-L1” value (“ability” for short) was “demonstrated the ability to block PD-1/PD-L1 interaction”.
For the substance “[Ac]SD[HArg]CS[Nle]GWLT[hPhe]CLKL[Aib]LCPSH [BCY10959]”, the “ability” value is listed as “demonstrated the ability to block PD-1/PD-L1 interaction”.
In the case of “[Ac]SDKCSAGWLTMCKQLNLCPSH-COOH [BCY10939]”, the “ability” value is reported as “demonstrated the ability to block PD-1/PD-L1 interaction”.

Another assay has as its target T2, human PD-L1 (Homo sapiens, UniProt Q9NZQ7).
T2 construct: purchased Sino Biologicals or R&D systems
The assay can be described thus: PD-L1 SPR Binding Assay (Biacore), human. The following applies: 25° C. As for the experimental part:
The protein was desalted to remove uncoupled biotin using spin columns into PBS. For analysis of binding, a Biacore 3000 instrument was used utilizing a CM5 sensor chip (GE Healthcare). Streptavidin was immobilized on the chip using standard amine-coupling chemistry at 25° C. with HBS-N (10 mM HEPES, 0.15 M NaCl, pH 7.4) as the running buffer. The carboxymethyl dextran surface was activated with a 12 min injection of a 1:1 ratio of 0.4 M 1-ethyl-3-(3-dimethylaminopropyl) carbodiimide hydrochloride (EDC)/0.1 M N-hydroxy succinimide (NHS) at a flow rate of 10 μl/min. For capture of streptavidin, protein was diluted to 0.1 mg/ml in 10 mM sodium acetate (pH 4.5) and captured by injecting 70 μl onto the activated chip surface. Residual activated groups were blocked with a 7 min injection of 1 M ethanolamine (pH 8.5). Biotinylated PD-L1 stock was diluted 1:100 in HBS-N and captured on one flow cell at 5 μl/min to a level of 1000-1300 RU. Buffer was changed to PBS/0.05% Tween 20 and a dilution series of the peptides was prepared in this buffer with a final DMSO concentration of 0.5%. The top concentrations were 200 nM or 500 nM with 6 2-fold dilutions. The SPR analysis was run at 25° C. at a flow rate of Flow rate 50 μl/min with 60 seconds association and 400 seconds disassociation. Data were corrected for DMSO excluded volume effects. All data were double-referenced for blank injections and reference surface using standard processing procedures and data processing and kinetic fitting were performed using Scrubber software, version 2.0c (Biologic Software). Data were fitted using mass transport model allowing for mass transport effects where appropriate.
For orientation: SPR reads the build-up and loss of mass on a sensor chip optically.
For the substance “Ac-SEKCS[Aad]GWLTMCLKLHLC (cysteine pairing not given here) [BCY11825]”, binding was characterised by a dissociation constant (Kd) of 28.8 nM.
Turning to SDKCS[Nle]GWLTMCQKLHLCA [BCY10062], binding was characterised by a dissociation constant (Kd) of 23 nM. This Kd and that of the substance before are within 1.5-fold of each other.
On the same count and under the same terms, under Ac-SDKCS[Aad]GWLTMCLKLHLCA [BCY11828] stands 16.6 nM; under “Ac-KCS[Aad]GWLTMCLKLHLC (cysteine pairing not given here) [BCY11824]”, 60 nM; under “Ac-DKCS[Aad]GWLTMCQKLHLCPSH-COOH [BCY11853]”, 17.6 nM.
On the same count and under the same terms, under SDKCSAGWLTMC[Chg]KLHLCA [BCY10066] stands 14.4 nM; under SD[HArg]CSAGWLTMCQKLHLCA [BCY10052], 22.3 nM; under SDKCSAGWLTMCQK[Nle]HLCA [BCY10071], 58.2 nM.
Same read-out and setting: under SDKCSAGWLTMCQKLH[Nva]CA [BCY10083] stands 75 nM; under “Ac-[hArg]CS[Aad]GWLTMCLKLHLC (cysteine pairing not given here) [BCY11827]”, 30 nM; under SDKCSAGWLTMCQ[Nle]LHLCA [BCY10068], 54.5 nM.
Take SDKCS[Abu]GWLTMCQKLHLCA [BCY10055]: binding was characterised by a dissociation constant (Kd) of 27.9 nM. This Kd is about 2-fold lower than that of the substance before.
The same measure, in the same setting: to SDKCSAGWLT[Nle]CQKLHLCA [BCY10058] belongs 59.7 nM; to “Ac-SEKCS[Aad]GWLTMCLKLHLCPSH (cysteine pairing not given here) [BCY11831]”, 13.2 nM.
SDKCS[Aib]GWLTMCQKLHLCA [BCY10054]: binding was characterised by a dissociation constant (Kd) of 31.2 nM.
Still for that read-out and setting: under “Ac-EKCS[Aad]GWLTMCLKLHLC (cysteine pairing not given here) [BCY11826]” stands 18.2 nM; under SDKCSAGWLTMCQKLH[Nle]CA [BCY10074], 36.1 nM.
Consider “SDKCSAGWLTMCQK[Nva]HLCA (cysteine pairing not given here) [BCY10084]”, for which the Kd (commonly the constant that tells how readily two partners part at equilibrium) came out at 43.2 nM.
Same read-out and setting: under SDKCSAGWLTMCQKL[Aib]LCA [BCY10073] stands 15.8 nM.
